{"source": "patent US8067422B2", "about": "“Crystal form of phenylamino pyrimidine derivatives” (Natco Pharma Limited, priority 2008, dated 2011)", "key": {"[1]": {"system": "ZR71 breast cancer cells", "test": "Matrigel invasion assay (modified Boyden chamber), ZR-71", "assay_type": "cell-based", "details": "ZR-71", "procedure": "(§1) The in vitro invasiveness of 4910, 5310 and U87 glioma cells and MDAMB231 and ZR71 breast cancer cells in the presence of specified concentrations of compounds were assessed using a modified Boyden chamber assay. Cells were treated with these compounds for 48 h. 1×10^6 cells were suspended in 600 μl of serum-free medium supplemented with 0.2% BSA and placed in the upper compartment of the transwell chambers (Corning Costar Fischer Scientific Cat #07-200-158, Pittsburgh Pa.) coated with Matrigel (0.7 mg/ml). The lower compartment of the chamber was filled with 200 μl of serum medium and the cells were allowed to migrate for 24 h. After incubation, the cells were fixed and stained with Hema-3 and quantified as previously described (Mohanam et al. 1993). The migrated cells were imaged microscopically to determine the reduction in invasiveness induced by the compounds of this invention."}, "[2]": {"system": "MDAMB231 breast cancer cells", "test": "In vitro angiogenic assay, MDA-MB-231 conditioned media on human dermal endothelial cells", "assay_type": "cell-based", "details": "MDA-MB-231 cells", "procedure": "The in vitro angiogenesis of 4910, 5310 and U87 glioma cells and MDAMB231 and ZR71 breast cancer cells in the presence of specified concentrations of compounds were determined as follows, cells (2×10^4/well) were seeded in 8-well chamber slides and were treated with various concentrations of test compounds. After a 24 h incubation period, the conditioned media was removed and added to a 4×10^4 human dermal endothelial cell (monolayer in 8-well chamber slides) and the human dermal endothelial cells were allowed to grow for 72 h. Cells were then fixed in 3.7% formaldehyde and stained with H&E and photographed."}, "[3]": {"system": "AKT, ERK and Pi3k in 5310 glioma cells", "test": "Western blot analysis, 5310", "assay_type": "cell-based", "procedure": "Western blot analysis of 4910, 5310 and U87 glioma cells and MDAMB231 and ZR71 breast cancer cells in the presence of specified concentrations of compounds were assessed as per standard protocols. Cells were treated with AN019, AN024 or Temozolomide at the specified concentrations. 24 h after treatment, cells were collected and cell lysates extracted. Equal quantities of proteins were fractionated by SDS-PAGE. The fractionated proteins were blotted on to nylon membranes and immunoprobed for AKT, ERK and Pi3k. Breast cancer cell protein isolates were additionally immunoprobed for EGFR, ErbB1, ErbB2 and ErbB3."}, "[4]": {"system": "Baf3 murine leukemia cells (Wt)", "test": "Blast cell count in nude mice implanted with Baf3 Wt cells", "assay_type": "in vivo", "details": "Baf3Wt; Imatinib 10 mg/kg, AN019 20 mg/kg, AN024 20 mg/kg, oral gavage or ip; day 42", "excerpt": "(§2) Blood smears were obtained via the tail vein or via the femoral vein every 6th day and blast cells counted and graphically represented.\n(§3) Abdominal swelling and decrease in activity was monitored daily, blood smear taken via the tail vein or the femoral vein every 6th day and H&E stained as per standard protocols. 42 days after implantation, mice were sacrificed and spleens harvested.\n(§4) Nude mice were intraperitoneally implanted with Baf3 mutant cells (wt, T315I, M351T or E255K). […] Blood was drawn from the femoral vein or tail vein every 6th day and blast cell count determined and graphically represented."}, "[5]": {"system": "4910 human glioma xenograft cells", "test": "Glioma radiation study, nude mice intracranially implanted with 4910 cells", "assay_type": "in vivo", "procedure": "Nude mice were intracranially implanted with 4910 human glioma xenograft cells (1×10^6 cells). Ten days after implantation mice were treated with AN019, AN024 or temozolomide with or without radiation (5 Gy/week). The experiment was terminated at day 40 post implantation."}, "[6]": {"system": "Baf3 murine leukemia cells (T315I)", "test": "Blast cell count in nude mice implanted with Baf3 T315I cells", "assay_type": "in vivo", "details": "Baf3T315I; Imatinib 10 mg/kg, AN019 20 mg/kg, AN024 20 mg/kg, oral gavage or ip; day 42", "excerpt": "as §2, §3, §4"}, "[7]": {"system": "Baf3 murine leukemia cells (E255K)", "test": "Blast cell count in nude mice implanted with Baf3 E255K cells", "assay_type": "in vivo", "details": "Baf3 E225K (E255K); Imatinib 10 mg/kg, AN019 20 mg/kg, AN024 20 mg/kg, oral gavage or ip; day 42", "excerpt": "as §2, §3, §4"}, "[8]": {"system": "K562 luc human leukemia cells", "test": "Luciferase expression in nude mice implanted with K562 luc cells, low dose oral administration", "assay_type": "in vivo", "procedure": "Five mice were used per group and divided into 24 groups+2 control. All groups were implanted with K562 normal/luc cells. Of the 24 groups, 12 were used for luciferase studies whereas the other 12 were used for blood smear count studies.\nDrugs were administered by oral gavage (2% gum acacia and 2% SLS in an aqueous suspension)."}, "[9]": {"system": "5310 glioma cells", "test": "Matrigel invasion assay (modified Boyden chamber), 5310", "assay_type": "cell-based", "details": "5310", "procedure": "as §1"}}}
{"smiles": "Cc1ccc(NC(=O)c2cc(C(F)(F)F)cc(C(F)(F)F)c2)cc1Nc1nccc(-c2cccnc2)n1", "note": "[AN019, (3,5-bis trifluoromethyl)-N-[4-methyl-3-(4-pyridin-3yl-pyrimidin-2ylamino)-phenyl]-benzamide]", "values": [{"measurement": "±Change in invasion after radiation", "setting": "[1]", "result": "−14", "unit": "%"}, {"measurement": "Inhibition of angiogenesis", "setting": "[2]; after radiation", "result": "slight inhibition"}, {"measurement": "Inhibition of angiogenesis", "setting": "[2]; control condition (without radiation)", "result": "slight inhibition"}, {"measurement": "AKT expression levels (Western blot)", "setting": "[3]; 5310", "result": "decrease in AKT expression levels"}, {"measurement": "PI3k levels (Western blot)", "setting": "[3]; 5310, after radiation", "result": "reappeared after radiation treatment"}, {"measurement": "PI3k levels (Western blot)", "setting": "[3]; 5310, without radiation", "result": "almost undetectable"}, {"measurement": "Blast cell count in blood smears", "setting": "[4]", "result": "complete regression of leukemic blast cells"}, {"measurement": "Intracranial tumour size and appearance", "setting": "[5]; with radiation (5 Gy/week)", "result": "tumor size was significantly reduced"}, {"measurement": "Intracranial tumour size and appearance", "setting": "[5]; without radiation", "result": "tumours similar to AN024 treated animals"}, {"measurement": "Blast cell count in blood smears", "setting": "[6]", "result": "significant decrease in blast cell count"}, {"measurement": "Blast cell count in blood smears", "setting": "[7]", "result": "significant decrease in blast cell count"}, {"measurement": "Luciferase expression", "setting": "[8]; 1 mg/kg", "result": "did not induce a decrease in luciferase expression"}, {"measurement": "Luciferase expression", "setting": "[8]; 5 mg/kg", "result": "fixation of leukemia cells at constant expression levels"}, {"measurement": "Luciferase expression", "setting": "[8]; 10 mg/kg", "result": "decrease in luciferase expression"}, {"measurement": "Luciferase expression", "setting": "[8]; 20 mg/kg", "result": "decrease in luciferase expression"}, {"measurement": "±Change in invasion after radiation", "setting": "[9]", "result": "+1%"}]}
